Results on one cell line are retold here after the supplement of paper PMC10307832.

Common to all, as to assay: relative viability (nuclei count vs DMSO), 5 days (fraction); higher = more cells survive
Compound in the test “Trametinib + Navitoclax”: CC(=O)Nc1cccc(-n2c(=O)n(C3CC3)c(=O)c3c(Nc4ccc(I)cc4F)n(C)c(=O)c(C)c32)c1 [Trametinib] + CC1(C)CCC(c2ccc(Cl)cc2)=C(CN2CCN(c3ccc(C(=O)NS(=O)(=O)c4ccc(N[C@H](CCN5CCOCC5)CSc5ccccc5)c(S(=O)(=O)C(F)(F)F)c4)cc3)CC2)C1 [Navitoclax] (partner 0.5 µM)
The essentials:
(§1)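 Medians of duplicate plates are given as relative viability. That measure is the nuclei count in treated wells divided by the count in vehicle wells. Counts were taken on 4× images of lung cancer cell lines in 1536-well plates, 5 days after pin-tool dosing the day after seeding with one drug alone or a fixed anchor-drug dose plus five library-drug doses (not always all listed) in √10 steps.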

Compound in test [1]: CN1C=C(C2=CC=CC=C21)/C=C\3/C4=C(C=CC=N4)NC3=O + O=C(c1cc(Cc2n[nH]c(=O)c3ccccc23)ccc1F)N1CCN(C(=O)C2CC2)CC1 [Olaparib] (partner 8 µM)
In a few lines:
as §1

Compound in test [2]: CN1C=C(C2=CC=CC=C21)/C=C\3/C4=C(C=CC=N4)NC3=O + CS(=O)(=O)CCNCc1ccc(-c2ccc3ncnc(Nc4ccc(OCc5cccc(F)c5)c(Cl)c4)c3c2)o1 [Lapatinib] (partner 2 µM)
In a few lines: as §1

Compound in test [3]: CN1C=C(C2=CC=CC=C21)/C=C\3/C4=C(C=CC=N4)NC3=O + CCNC(=O)c1noc(-c2cc(C(C)C)c(O)cc2O)c1-c1ccc(CN2CCOCC2)cc1 [Luminespib] (partner 0.01 µM)
The essentials: as §1

UMC-11: the relative viability with Trametinib + Navitoclax (first compound 0.0025 µM) came out at 0.305; with Trametinib + Navitoclax (first compound 0.007906 µM), 0.32; in the test with Trametinib + Navitoclax (first compound 0.025 µM), 0.288; with Trametinib + Navitoclax (first compound 0.07906 µM), 0.266; with Trametinib + Navitoclax (first compound 0.25 µM) it was 0.263; in test [1] (first compound 0.02 µM), 0.461. In addition, the relative viability in test [1] (first compound 0.06325 µM) was determined as 0.333; in test [1] (first compound 0.2 µM) it was 0.356; in test [1] (first compound 0.6325 µM), 0.381; in test [1] (first compound 2 µM), 0.47; in test [2] (first compound 0.02 µM), 0.854; in test [2] (first compound 0.06325 µM), 0.901. Further, the relative viability in test [2] (first compound 0.2 µM) is 0.632; in test [2] (first compound 0.6325 µM), 0.897; in test [2] (first compound 2 µM) it was 1.33; in test [3] (first compound 0.02 µM) it was 0.764; in test [3] (first compound 0.06325 µM), 0.943; in test [3] (first compound 0.2 µM), 1. The results for the relative viability in test [3] (first compound 0.6325 µM) and in test [3] (first compound 2 µM) were 1.25 and 1.18, respectively.
